The record followed here is ChEMBL document CHEMBL5247622, “Structural optimization of Imidazo[1, 2-a]pyridine derivatives for the treatment of gastric cancer via STAT3 signaling pathway” (Eur J Med Chem, 2022).

Series [1] has as its system AGS. Nature of the series: Antiproliferative activity against human AGS cells assessed as reduction in cell viability incubated for 72 hrs by CCK-8 assay. Format: functional, cell-based. (In general: Tetrazolium assays rely on reduction of a dye to a coloured formazan, in cell work by metabolically active cells.)
Series [2] relates to MGC-803. Nature of the series: Antiproliferative activity against human MGC-803 cells assessed as reduction in cell viability incubated for 72 hrs by CCK-8 assay. It counts as functional, cell-based. The note with it: MGC-803, 72 h.
Series [3] in a line: Metabolic stability in human liver microsomes assessed as half life. It counts as ADME, Microsome. Background: Liver microsomes are a subcellular fraction often used to study metabolism.
Series [4] has as its target Signal transducer and activator of transcription 3 (Homo sapiens) (UniProt P40763). The series is described as follows: Inhibition of STAT3 (unknown origin) transcriptional signaling transfected in HEK293T cells at 3 uM incubated for 24 hrs by firefly luciferase gene reporter assay. Format: cell-based. A general note: In a reporter assay the amount or activity of a reporter protein is the signal.

Series [5] shares this target. Nature of the series: Thermal stabilization of STAT3 in human AGS cells at 1 uM at 37 to 54 degreeC incubated for 1 hr by cellular thermal shift assay. Format: cell-based.
The test system of series [6] is AGS. The series is described as follows: Inhibition of colony formation in human AGS cells at 0.3 to 3 uM incubated for 10 to 15 days by crystal violet staining based assay. It counts as functional, cell-based. The note with it: dose 0.3-3 µM, time 10-15 day.
For series [7], the system named is MGC-803. Nature of the series: Inhibition of colony formation in human MGC-803 cells at 0.3 to 3 uM incubated for 10 to 15 days by crystal violet staining based assay. Particulars: dose 0.3-3 µM, time 10-15 day. It counts as functional, cell-based.
Series [8] concerns AGS. The series is described as follows: Induction of apoptosis in human AGS cells assessed as viable cells at 0.3 uM incubated for 48 hrs by Annexin V-FITC/PI staining based flow cytometry method (reference value: 94.8 %). Format: functional. Particulars: read-out: Activity.
The subject of series [9] is AGS. Nature of the series: Induction of apoptosis in human AGS cells assessed as viable cells at 1 uM incubated for 48 hrs by Annexin V-FITC/PI staining based flow cytometry method (reference value: 94.8 %). Format: functional. The note with it: read-out: Activity.
The subject of series [10] is AGS. The series is described as follows: Induction of apoptosis in human AGS cells assessed as viable cells at 3 uM incubated for 48 hrs by Annexin V-FITC/PI staining based flow cytometry method (reference value: 94.8 %). It counts as functional. The note with it: read-out: Activity.
Series [11] concerns AGS. The series is described as follows: Induction of apoptosis in human AGS cells assessed as early apoptotic cells at 0.3 uM incubated for 48 hrs by Annexin V-FITC/PI staining based flow cytometry method (reference value: 2.38 %). Format: functional.
For series [12], the system named is AGS. The series is described as follows: Induction of apoptosis in human AGS cells assessed as early apoptotic cells at 1 uM incubated for 48 hrs by Annexin V-FITC/PI staining based flow cytometry method (reference value: 2.38 %). It counts as functional.
Series [13] concerns AGS. The series is described as follows: Induction of apoptosis in human AGS cells assessed as early apoptotic cells at 3 uM incubated for 48 hrs by Annexin V-FITC/PI staining based flow cytometry method (reference value: 2.38 %). Format: functional.
Series [14] has as its system AGS. The series is described as follows: Induction of apoptosis in human AGS cells assessed as late apoptotic cells at 0.3 uM incubated for 48 hrs by Annexin V-FITC/PI staining based flow cytometry method (reference value: 2.46 %). It counts as functional.
The test system of series [15] is AGS. The series is described as follows: Induction of apoptosis in human AGS cells assessed as late apoptotic cells at 1 uM incubated for 48 hrs by Annexin V-FITC/PI staining based flow cytometry method (reference value: 2.46 %). It counts as functional.
In series [16] the test system is AGS. The series is described as follows: Induction of apoptosis in human AGS cells assessed as late apoptotic cells at 3 uM incubated for 48 hrs by Annexin V-FITC/PI staining based flow cytometry method (reference value: 2.46 %). It counts as functional.
Series [17] deals with AGS. The series is described as follows: Induction of apoptosis in human AGS cells assessed as necrotic cells at 0.3 uM incubated for 48 hrs by Annexin V-FITC/PI staining based flow cytometry method (reference value: 0.32 %). Format: functional.
Series [18] deals with AGS. The series is described as follows: Induction of apoptosis in human AGS cells assessed as necrotic cells at 1 uM incubated for 48 hrs by Annexin V-FITC/PI staining based flow cytometry method (reference value: 0.32 %). It counts as functional.
The subject of series [19] is AGS. Nature of the series: Induction of apoptosis in human AGS cells assessed as necrotic cells at 3 uM incubated for 48 hrs by Annexin V-FITC/PI staining based flow cytometry method (reference value: 0.32 %). Format: functional.
The subject of series [20] is MGC-803. Nature of the series: Antitumor activity against human MGC-803 cells xenografted in BALB/c mouse assessed as inhibition of tumor volume at 15 mg/kg,ip administrated for 21 consecutive days. Format: functional, organism-based.
Series [21] has as its system MGC-803. Nature of the series: Antitumor activity against human MGC-803 cells xenografted in BALB/c mouse assessed as inhibition of tumor weight at 15 mg/kg,ip administrated for 21 consecutive days. It counts as functional, organism-based.
In series [22] the test system is MGC-803. Nature of the series: Antitumor activity against human MGC-803 cells xenografted in BALB/c mouse assessed as tumor growth inhibition at 15 mg/kg,ip administrated for 21 consecutive days relative to control. It counts as functional. Particulars: read-out: TGI.

Calls of active or inactive are those of the source.

Chain of Signal transducer and activator of transcription 3 (Homo sapiens) (P40763 whole entry): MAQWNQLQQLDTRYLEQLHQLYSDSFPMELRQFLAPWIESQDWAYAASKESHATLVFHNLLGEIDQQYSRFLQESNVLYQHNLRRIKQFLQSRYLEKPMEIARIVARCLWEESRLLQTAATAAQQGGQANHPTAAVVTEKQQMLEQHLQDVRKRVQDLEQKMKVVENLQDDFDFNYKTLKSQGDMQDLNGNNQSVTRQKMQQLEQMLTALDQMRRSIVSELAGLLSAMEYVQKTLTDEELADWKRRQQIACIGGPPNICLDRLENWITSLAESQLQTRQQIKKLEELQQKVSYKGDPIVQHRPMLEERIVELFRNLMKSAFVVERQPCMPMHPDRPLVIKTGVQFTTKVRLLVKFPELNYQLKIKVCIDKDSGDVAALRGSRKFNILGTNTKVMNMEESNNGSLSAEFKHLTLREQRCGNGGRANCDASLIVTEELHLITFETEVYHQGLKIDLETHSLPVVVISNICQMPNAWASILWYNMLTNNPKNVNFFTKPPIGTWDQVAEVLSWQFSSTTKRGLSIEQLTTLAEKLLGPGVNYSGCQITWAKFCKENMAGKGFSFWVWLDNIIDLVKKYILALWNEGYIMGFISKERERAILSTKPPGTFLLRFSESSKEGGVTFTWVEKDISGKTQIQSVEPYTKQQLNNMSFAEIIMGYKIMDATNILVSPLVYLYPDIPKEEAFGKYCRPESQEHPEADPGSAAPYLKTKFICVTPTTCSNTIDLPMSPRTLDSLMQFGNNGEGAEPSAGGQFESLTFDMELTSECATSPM

Usually IC50 stands for the concentration that inhibits the measured activity by half. As for `O=C(Nc1ccc(-c2cnc3cc(Br)ccn23)cc1)c1ccc([N+](=O)[O-])o1`, the values for the 50% inhibitory concentration (IC50) in the series with AGS [1] and in the series with MGC-803 [2] were 560 nM and 750 nM, respectively.

Usually half-life stands for the time needed for the level to fall by half in the phase considered. Regarding `COc1ccn2c(-c3ccc(NC(=O)c4ccc([N+](=O)[O-])o4)c(C(F)(F)F)c3)cnc2c1`, the IC50 was found to be 710 nM in the series on AGS [1] and 2910 nM in the series on MGC-803 [2]. The half-life in series [3] came to 24.2 min. For the same compound, the inhibition result in series [4] is “Active”.

Turning to `COc1ccn2c(-c3ccc(NC(=O)c4ccc([N+](=O)[O-])o4)nc3)cnc2c1`, the half-inhibitory concentration (IC50) in the series on AGS [1] and with MGC-803 [2] was > 20000 nM in each case.

As for `O=C(Nc1ccc(-c2cnc3cc(C4=CCNCC4)ccn23)cc1)c1ccc([N+](=O)[O-])o1`, the half-inhibitory concentration (IC50) with AGS [1] turned out to be 1280 nM; with MGC-803 [2] it was 790 nM. Also, the half-life in [3] is 12.2 min. In addition, in series [4], the inhibition result was “Active”.

As to `O=C(Nc1ccc(-c2cnc3cc(N4CCN(C5CC5)CC4)ccn23)cc1)c1ccc([N+](=O)[O-])o1`, the IC50 with AGS [1] was found to be 1920 nM; with MGC-803 [2], 1650 nM.

As for `O=C(Nc1ccc(-c2cnc3cc(C4=CCN(C5COC5)CC4)ccn23)cc1)c1ccc([N+](=O)[O-])o1`, the IC50 in the series on AGS [1] is 790 nM; in the series with MGC-803 [2], 1100 nM.

In the case of `COc1ccn2c(-c3ccc(NC(=O)c4ccc([N+](=O)[O-])o4)cc3F)cnc2c1`, the concentration for half-maximal inhibition (IC50) amounted to 700 nM in the series with AGS [1] and 1080 nM in the series with MGC-803 [2]. The half-life in [3] was found to be 25.7 min. Moreover, in [4], the inhibition result is “Active”.

Consider `O=C(Nc1ccc(-c2cnc3cc(N4CCCC4)ccn23)cc1)c1ccc([N+](=O)[O-])o1`, for which the IC50 with AGS [1] came to 1240 nM; in the series with MGC-803 [2] it was 1150 nM.

On to `O=C(Nc1ccc(-c2cnc3ccccn23)cc1)c1ccc([N+](=O)[O-])o1`, for which the IC50 came out at 360 nM in the series on AGS [1] and 590 nM with MGC-803 [2]. The half-life in series [3] turned out to be 24.7 min. Also, in [4], the inhibition entry was “Active”.

For `O=C(Nc1ccc(-c2cnc3cc(N4CCOCC4)ccn23)cc1)c1ccc([N+](=O)[O-])o1`, the values for the IC50 in the series on AGS [1] and in the series on MGC-803 [2] were 2220 nM and 7410 nM, respectively.

Consider `CC(=O)N1CC=C(c2ccn3c(-c4ccc(NC(=O)c5ccc([N+](=O)[O-])o5)cc4)cnc3c2)CC1`, for which the IC50 in the series on AGS [1] was 410 nM; with MGC-803 [2], 940 nM. Moreover, in [3], the half-life is 13.5 min. The inhibition entry in series [4] is “Active”.

Take `CC1(O)CCN(c2ccn3c(-c4ccc(NC(=O)c5ccc([N+](=O)[O-])o5)cc4)cnc3c2)CC1`: the results for the half-inhibitory concentration (IC50) in the series on AGS [1] and with MGC-803 [2] were 1530 nM and 3100 nM, respectively.

As to `COc1ccn2c(-c3ccc(NC(=O)c4ccc([N+](=O)[O-])o4)c(OC)c3)cnc2c1`, the values for the 50% inhibitory concentration (IC50) with AGS [1] and with MGC-803 [2] were 3880 nM and 7520 nM, respectively.

Turning to `Cc1cc(-c2cnc3ccccn23)ccc1NC(=O)c1ccc([N+](=O)[O-])o1`, the IC50 stood at 730 nM in the series with AGS [1] and 1830 nM with MGC-803 [2]. Further, in [3], the half-life is 36.7 min. Moreover, in series [4], the inhibition result is “Active”.

As to `COc1ccn2c(-c3ccc(NC(=O)c4ccc([N+](=O)[O-])o4)cc3OC)cnc2c1`, the IC50 in the series on AGS [1] and with MGC-803 [2] was > 20000 nM throughout.

With `COc1ccn2c(-c3ccc(NC(=O)c4ccc([N+](=O)[O-])o4)c(C)c3C(F)(F)F)cnc2c1`, the half-inhibitory concentration (IC50) is 2100 nM in the series on AGS [1] and 2720 nM with MGC-803 [2]. Besides, in [3], the half-life amounted to 50.1 min. Further, the inhibition entry in series [4] is “Active”.

With `COc1ccn2c(-c3ccc(NC(=O)c4ccc([N+](=O)[O-])o4)cc3)cnc2c1`, the IC50 in the series on AGS [1] worked out at 720 nM; with MGC-803 [2], 860 nM. Further, the half-life in series [3] came to 28.3 min. Further, in [4], the inhibition entry is “Active”.

In the case of `CN1CCCN(c2ccn3c(-c4ccc(NC(=O)c5ccc([N+](=O)[O-])o5)cc4)cnc3c2)CC1`, the half-maximal inhibitory concentration (IC50) in the series on AGS [1] was 2700 nM; with MGC-803 [2] it was 3580 nM.

With `O=C(Nc1ccc(-c2cnc3cc(N4CCS(=O)(=O)CC4)ccn23)cc1)c1ccc([N+](=O)[O-])o1`, the figures for the concentration for half-maximal inhibition (IC50) in the series with AGS [1] and in the series on MGC-803 [2] were 2130 nM and 3040 nM, respectively.

For `CN1CCN(c2ccn3c(-c4ccc(NC(=O)c5ccc([N+](=O)[O-])o5)cc4)cnc3c2)CC1`, the half-inhibitory concentration (IC50) with AGS [1] amounted to 2340 nM; with MGC-803 [2], 1580 nM.

For the compound `COc1ccn2c(-c3ccc(NC(=O)c4ccc([N+](=O)[O-])o4)cc3C)cnc2c1`, the values for the IC50 with AGS [1] and in the series with MGC-803 [2] were 640 nM and 1030 nM, respectively. Besides, the half-life in [3] was 43 min. Besides, the inhibition result in [4] was “Active”.

For the compound `O=C(Cc1c(-c2ccccc2)nc2ccccn12)Nc1ccc2c(c1)S(=O)(=O)C=C2`, the IC50 with AGS [1] is 1550 nM. The half-life in series [3] came to 24.2 min. Also, the inhibition entry (in [4]; in the series with MGC-803 [20]; in the series with MGC-803 [21]) was “Active” each time. In addition, the result in series [5] was Active. The inhibition entry in the series with AGS [6] and in the series with MGC-803 [7] was “Dose-Dependent Effect” throughout. For the same compound, in the series on AGS [8], the viability at 0.3 µM was determined as 94.1%. Further, the viability at 1 µM in the series on AGS [9] was 91.8%. For the same compound, in the series on AGS [10], the viability at 3 µM was determined as 90.2%. Besides, the Activity with AGS [11] amounted to 2.59%; in the series on AGS [12] it was 3.19%; in the series with AGS [13], 7.98%; with AGS [14] it was 3.01%; in the series with AGS [15], 4.84%; in the series on AGS [16], 1.3%. Besides, the Activity with AGS [17] amounted to 0.29%; with AGS [18], 0.19%; in the series with AGS [19], 0.5%. The inhibition in vivo at 15 mg/kg in the series with MGC-803 [22] is 54.5%.

`COc1ccn2c(-c3ccc(NC(=O)c4ccc([N+](=O)[O-])o4)c(C)c3)cnc2c1`: the results for the 50% inhibitory concentration (IC50) in the series with AGS [1] and in the series on MGC-803 [2] were 430 nM and 1380 nM, respectively. The half-life in series [3] was 39.9 min. Besides, the inhibition result in [4] was “Active”.

In the case of `O=C(Nc1ccc(-c2cnc3cc(Cl)ccn23)cc1)c1ccc([N+](=O)[O-])o1`, the IC50 in the series with AGS [1] was 1700 nM; in the series with MGC-803 [2], 4620 nM.

With `O=C(Nc1ccc(-c2cnc3cc(N4CCC4)ccn23)cc1)c1ccc([N+](=O)[O-])o1`, the IC50 in the series on AGS [1] and in the series with MGC-803 [2] was > 5000 nM throughout.
